In brackets after ≈: the same amount, converted by molar mass. Several values for one entry are separate records, joined by “and”; a condition that tells them apart may be missing. Equal values may be shown once. Residues, ends and D or L forms follow the SMILES beside them. No end group written: not given here. *: point of attachment. Palmitoyl = CCCCCCCCCCCCCCCC(=O)*
What was measured:
[1] = system: methicillin-resistant S. aureus strain (ATCC 43300); assay type: cell-based, Staphylococcus aureus; conditions: ATCC 43300, 18 h
Protocol: Furthermore, sensitivity of a methicillin-resistant S. aureus strain (ATCC 43300) was investigated for palmitoylated CIDAMPs in a microtiter plate screening model, with incubation in Mueller-Hinton medium at 37° C. for 18 h using resazurin as a marker for cell viability.
A sample of each culture was then diluted 40-fold in fresh broth and incubated at 37° C. for 1.5-3 h. […] All the plates were covered and incubated at 37° C. for 18 h.
(§1) Inhibition of bacterial growth was determined using resazurin as a marker for cell viability. Resazurin was added to each well, at 0.001% final concentration, and plates incubated at 37° C. for 2 h. Fluorescence intensity was measured, using F (top read), ex 560/10 nm, em 590/10 nm, using a Tecan M1000 Pro monochromator plate reader.

[2] = system: P. aeruginosa ATCC 10145; test: CFU-assay, P. aeruginosa-cidal activity; assay type: cell-based, Pseudomonas aeruginosa; conditions: pH 5.5, 0.25% glucose
[3] = system: S. aureus ATCC 6538; test: CFU-assay, S. aureus-cidal activity; assay type: cell-based, Staphylococcus aureus; conditions: pH 5.5, 0.25% glucose
Protocol: Thus, within the present invention, the antimicrobial activity is generally measured in nutrient deficient 10 mM sodium phosphate buffer pH 5.5, containing 0.25% glucose, using the CFU-assay according to Steinberg and Lehrer, 1997 (supra), unless otherwise indicated. The CFU-assay allows determination of the minimal bactericidal concentration (MBC, e.g., MBC90 and MBC100; i.e. the concentration of compound required to achieve a specified reduction in bacterial cell number (microbial death or killing)).
Various peptides corresponding to repeat domains of hornerin (HR 1-11: HRNR 2606-2628; HR 1-17: HRNR 2656-2684 and HR 1-18: HRNR 2656-2677) were tested for P. aeruginosa ATCC 10145-cidal activity in 10 mM Na-phosphate buffer pH 5.5, containing 0.25% glucose by counting the numbers of colonies of surviving bacteria at serial, twofold dilutions from 300 μg/ml down to 19 ng/ml of each peptide (CFU-assay; Steinberg and Lehrer, 1997, Methods Mol. Biol. 78, 169-186).
Staphylococcus aureus is a major skin pathogen, which causes skin infections, in particular in atopic dermatitis. The sensitivity of S. aureus ATCC 6538 towards several CIDAMPs was assessed using the CFU-assay as above (see Example 1). HR 1-18, which lacks S. aureus.-bactericidal activity, is converted in a S. aureus-cidal peptide, when all His are replaced by Arg (HR 1-18 4H-4R; see Table 13 and FIG. 9). […] HR 1-18 4H-4R is rich in Ser and Arg and contains a single Leu residue. When this single Leu was replaced by Gly in S. aureus-cidal HR 1-18 4H-4R (forming HR 1-18 4H-4R/L-G), S. aureus-cidal activity was abolished at both pH 7.0 and pH 5.5 (see Table 13 and FIG. 9).

[4] = Cytotoxicity (resazurin) assay
Protocol: For the cytotoxicity (resazurin) assay, HEK293 cells were counted manually in a Neubauer haemocytometer and plated at a density of 4000 cells/well into each well of the 384-well plates containing the 25×(2 μl) concentrated compounds. The medium used was Dulbecco's modified eagle medium (DMEM) supplemented with 10% foetal bovine serum (FBS). Cells were incubated together with the compounds for 20 h at 37° C., 5% CO2. To measure cytotoxicity, 5 μl (equals 100 μM final) resazurin was added to each well after incubation, and incubated for further 3 h at 37° C. with 5% CO2.
After final incubation fluorescence intensity was measured as F ex 560/10 nm, em 590/10 nm (F560/590) using a Tecan M1000 Pro monochromator plate reader. […] The concentration dependent percentage cytotoxicity was fitted to a dose response function (using Pipeline Pilot) and CC50 values determined.

[5] = Hemolysis assay; assay type: cell-based
Protocol: (§2) For the hemolysis assays EDTA-blood was centrifuged at 800×g for 10 min, and the plasma and buffy coat were removed. The erythrocytes were washed three times and resuspended in 5% PBS, pH 7.4. The cells were then incubated with end-over-end rotation for 1 h at 37° C. in the presence of different concentrations of peptides (0, 3, 10, 30, 60 μm). 0.1% Triton X-100 (Sigma-Aldrich) served as positive control. The samples were then centrifuged at 800×g for 10 min.
(§3) The absorbance of hemoglobin release was measured at 540 nm and is expressed as % of Triton X-100-induced hemolysis. These values of triplicates were plotted with Graph Pad Prism 4 as a dose response curve and the CC50 was determined.

[6] = system: A. baumannii ATCC 19606; assay type: cell-based, Acinetobacter baumannii; conditions: ATCC 19606, 2 h
Protocol: as §1

[7] = system: C. neoformans
[8] = system: C. albicans ATCC 928; conditions: for MIC, C. albicans ATCC 90028: ATCC 928; for MIC: ATCC 928, 18 h, pH 7.4
[9] = system: erythrocytes; test: Hemolysis assay; assay type: cell-based
Protocol: as §2, §3

[10] = system: Burkholderia cepacia ATCC 25416; test: CFU-assay, Burkholderia cepacia-cidal activity; assay type: cell-based
[11] = system: Klebsiella pneumoniae ATCC 13883; test: CFU-assay, Klebsiella pneumoniae-cidal activity; assay type: cell-based

Molecule | MIC, S. aureus ATCC 43300 [1] [µg/mL] | CC50 [4] | MIC, C. neoformans ATCC 208821 [7] [µg/mL] | HC50 [5] [µg/mL] | further results
N=C(N)NCCC[C@H](NC(=O)[C@H](CCCNC(=N)N)NC(=O)[C@H](CS)NC(=O)[C@H](CCCNC(=N)N)NC(=O)[C@H](Cc1c[nH]cn1)NC(=O)[C@H](CO)NC(=O)[C@H](CCCNC(=N)N)NC(=O)[C@H](CS)NC(=O)[C@H](CS)NC(=O)[C@H](CCCNC(=N)N)NC(=O)[C@H](Cc1c[nH]cn1)NC(=O)[C@H](Cc1c[nH]cn1)NC(=O)[C@@H](N)CO)C(=O)O [LCE3B5668] (H-SHHRCCRSHRCRR-OH; N-terminus and C-terminus assumed) | ≥32 | – | – | – | –
CCCCCCCCCCCCCCCC(=O)NCC(=O)N[C@@H](CCN)C(=O)NCC(=O)N[C@@H](CCN)C(=O)O [Pal-GDab4, Pal-GDabGDab] (HELM PEPTIDE1{[CCCCCCCCCCCCCCCC(=O)[*:2]].G.[Dab].G.[Dab]}$$$$V2.0) | ≥32 | 32 µg/mL (≈ 56.1 µM) | ≥16 | – | MBC90 [2]: 2.35 µg/mL (≈ 4.12 µM); MBC100 [2]: 9.38 µg/mL (≈ 16.4 µM); MBC90 [3]: 4.7 µg/mL (≈ 8.23 µM); MBC100 [3]: 18.75 µg/mL (≈ 32.9 µM); CC50 [5]: > 100 µg/mL; MIC, A. baumannii ATCC 19606 [6]: ≥32 µg/mL
CCCCCCCCCCCCCCCC(=O)NCC(=O)N[C@@H](CCCNC(=N)N)C(=O)NCC(=O)N[C@@H](CCCNC(=N)N)C(=O)O [Pal-GR4, Pal-GRGR] (HELM PEPTIDE1{[CCCCCCCCCCCCCCCC(=O)[*:2]].G.R.G.R}$$$$V2.0) | ≥8 | > 32 µg/mL | ≥8 | 100 | MIC, C. albicans ATCC 90028 [8]: ≥8 µg/mL; MIC [8]: 1 to 32 µg/mL
CCCCCCCCCCCCCCCC(=O)NCC(=O)N[C@@H](CCCNC(=N)N)C(=O)N[C@@H](CCCNC(=N)N)C(=O)NCC(=O)NCC(=O)N[C@@H](CCCNC(=N)N)C(=O)O [Pal-GR6, Pal-GRRGGR] (HELM PEPTIDE1{[CCCCCCCCCCCCCCCC(=O)[*:2]].G.R.R.G.G.R}$$$$V2.0) | ≥16 | > 32 µg/mL | ≥16 | > 300 | –
CCCCCCCCCCCCCCCC(=O)NCC(=O)N[C@@H](CCCNC(=N)N)C(=O)N[C@@H](CCCNC(=N)N)C(=O)NCC(=O)NCC(=O)N[C@@H](CCCNC(=N)N)C(=O)NCC(=O)NCC(=O)N[C@@H](CCCNC(=N)N)C(=O)O [Pal-GR9] (HELM PEPTIDE1{[CCCCCCCCCCCCCCCC(=O)[*:2]].G.R.R.G.G.R.G.G.R}$$$$V2.0) | ≥8 | > 32 µg/mL and > 27.4 µM | – | > 300 | HC50 at 1 h ([5]; human, washed erythrocytes from EDTA-blood, pH 7.4): > 257 µM; MIC [8]: 1 to 32 µg/mL
CCCCCCCCCCCCCCCC(=O)N[C@@H](Cc1c[nH]cn1)C(=O)NCC(=O)N[C@@H](CO)C(=O)N[C@@H](CCCNC(=N)N)C(=O)N[C@@H](CO)C(=O)NCC(=O)N[C@@H](CCC(N)=O)C(=O)N[C@@H](CO)C(=O)N[C@@H](CO)C(=O)N[C@@H](CCCNC(=N)N)C(=O)NCC(=O)N[C@@H](CCC(=O)O)C(=O)N[C@@H](CCCNC(=N)N)C(=O)N[C@@H](Cc1c[nH]cn1)C(=O)NCC(=O)N[C@@H](CO)C(=O)N[C@@H](CO)C(=O)N[C@@H](CO)C(=O)NCC(=O)N[C@@H](CO)C(=O)N[C@@H](CO)C(=O)N[C@@H](CO)C(=O)N[C@@H](Cc1c[nH]cn1)C(=O)O [Pal-HR 1-11] (HELM PEPTIDE1{[CCCCCCCCCCCCCCCC(=O)[*:2]].H.G.S.R.S.G.Q.S.S.R.G.E.R.H.G.S.S.S.G.S.S.S.H}$$$$V2.0) | >32 | > 32 µg/mL | – | – | –
CCCCCCCCCCCCCCCC(=O)NCC(=O)N[C@@H](CCCCN)C(=O)N[C@@H](CCCCN)C(=O)NCC(=O)NCC(=O)N[C@@H](CCCCN)C(=O)NCC(=O)NCC(=O)N[C@@H](CCCCN)C(=O)NCC(=O)N[C@@H](CCCCN)C(=O)NCC(=O)N[C@@H](CCCCN)C(=O)O [Pal-K-GR13] (HELM PEPTIDE1{[CCCCCCCCCCCCCCCC(=O)[*:2]].G.K.K.G.G.K.G.G.K.G.K.G.K}$$$$V2.0) | – | > 32 µg/mL | – | > 300 | hemolytic activity (in words) [9]: low hemolytic activity
CCCCCCCCCCCCCCCC(=O)N[C@@H](CO)C(=O)N[C@@H](Cc1c[nH]cn1)C(=O)N[C@@H](Cc1c[nH]cn1)C(=O)N[C@@H](CCCNC(=N)N)C(=O)N[C@@H](Cc1c[nH]cn1)C(=O)N[C@@H](Cc1ccccc1)C(=O)N[C@@H](CCCNC(=N)N)C(=O)N[C@@H](CO)C(=O)N[C@@H](Cc1c[nH]cn1)C(=O)N[C@@H](CCC(N)=O)C(=O)N[C@@H](CS)C(=O)N[C@@H](CCCNC(=N)N)C(=O)N[C@@H](CCCNC(=N)N)C(=O)O [Pal-LCE3C55-67] (HELM PEPTIDE1{[CCCCCCCCCCCCCCCC(=O)[*:2]].S.H.H.R.H.F.R.S.H.Q.C.R.R}$$$$V2.0) | ≥32 | > 32 µg/mL | ≥1 | > 100 | MIC, C. albicans ATCC 90028 [8]: ≥16 µg/mL; MIC [8]: 1 to 32 µg/mL
Pal-GRRGSGLGRSSSRGGRGSGSGR (Palmitoyl-GRRGSGLGRSSSRGGRGSGSGR) [Pal-HR 1-18 4H-4R] | – | – | – | – | MBC90 ([10]; pH 7.3, 0.25% glucose): 75 µg/mL; MBC100 ([10]; pH 7.3, 0.25% glucose): 300 µg/mL; MBC90 ([10]; pH 7.3, 1% TSB): 75 µg/mL; MBC100 ([10]; pH 7.3, 1% TSB): 150 µg/mL
Pal-SHHRPRLFHRRRH (Palmitoyl-SHHRPRLFHRRRH) [Pal-LCE-3B] | – | – | – | – | MBC90 ([11]; pH 5.5, 0.25% glucose): 0.15 µg/mL; MBC100 ([11]; pH 5.5, 0.25% glucose): 9.38 µg/mL; MBC90 ([11]; pH 7.3, 0.25% glucose): 2.35 µg/mL; MBC100 ([11]; pH 7.3, 0.25% glucose): 4.7 µg/mL
S-Pal-LCE3C55-75: palmitoylated peptide named among those with low hemolytic activity (SHHRHFRSHQCRRQRSNSCDR; also: S-palmitoylated, Cys not given here; UniProt Q5T5A8 55-75, looked up, fragment) | – | – | – | – | hemolytic activity (in words) [9]: low hemolytic activity
SHHRHFRSHQCRR [LCE3C55 67] | ≥32 | – | ≥8 | – | –

Reference: patent US11479587B2, “Cationic intrinsically disordered antimicrobial peptides” (priority 2016, dated 2022)
